Reference: ChEMBL document CHEMBL4507266, “Data for DCP probe BAY-784” (2021)

Columns and labels:
[1] = target: MAP/microtubule affinity-regulating kinase 4 (Homo sapiens) (UniProt Q96L34); settings: Compound concentration 1000.0 nM
[2] = target: Serine/threonine-protein kinase 38 (Homo sapiens) (UniProt Q15208); settings: Compound concentration 1000.0 nM
[3] = tested on: Phosphatidylinositol 4,5-bisphosphate 3-kinase catalytic subunit alpha isoform (Homo sapiens), P42336 [E545K]; settings: Compound concentration 1000.0 nM
[4] = target: Serine/threonine-protein kinase Chk2 (Homo sapiens) (UniProt O96017); settings: Compound concentration 1000.0 nM
[5] = target: Phosphatidylinositol 4-phosphate 5-kinase type-1 gamma (Homo sapiens) (UniProt O60331); settings: Compound concentration 1000.0 nM
[6] = target: Calcium/calmodulin-dependent protein kinase type II subunit beta (Homo sapiens) (UniProt Q13554); settings: Compound concentration 1000.0 nM
[7] = target: Calcium/calmodulin-dependent protein kinase type IV (Homo sapiens) (UniProt Q16566); settings: Compound concentration 1000.0 nM
[8] = tested on: Phosphatidylinositol 4,5-bisphosphate 3-kinase catalytic subunit alpha isoform (Homo sapiens), P42336 [Q546K]; settings: Compound concentration 1000.0 nM
[9] = target: Cytoplasmic tyrosine-protein kinase BMX (Homo sapiens) (UniProt P51813); settings: Compound concentration 1000.0 nM
[10] = target: Tyrosine-protein kinase receptor UFO (Homo sapiens) (UniProt P30530); settings: Compound concentration 1000.0 nM
[11] = target: Ribosomal protein S6 kinase alpha-3 (Homo sapiens) (UniProt P51812); settings: Compound concentration 1000.0 nM
[12] = target: Protein kinase C delta type (Homo sapiens) (UniProt Q05655); settings: Compound concentration 1000.0 nM
[13] = target: Mitogen-activated protein kinase kinase kinase 15 (Homo sapiens) (UniProt Q6ZN16); settings: Compound concentration 1000.0 nM
[14] = target: Serine/threonine-protein kinase ULK3 (Homo sapiens) (UniProt Q6PHR2); settings: Compound concentration 1000.0 nM
[15] = target: Myosin light chain kinase 2, skeletal/cardiac muscle (Homo sapiens) (UniProt Q9H1R3); settings: Compound concentration 1000.0 nM
[16] = target: ALK tyrosine kinase receptor (Homo sapiens) (UniProt Q9UM73); settings: Compound concentration 1000.0 nM
[17] = target: Ephrin type-A receptor 6 (Homo sapiens) (UniProt Q9UF33); settings: Compound concentration 1000.0 nM
[18] = tested on: Receptor-type tyrosine-protein kinase FLT3 (Homo sapiens), P36888 [N841I]; settings: Compound concentration 1000.0 nM
[19] = target: Rhodopsin kinase GRK1 (Homo sapiens) (UniProt Q15835); settings: Compound concentration 1000.0 nM
[20] = target: cAMP-dependent protein kinase catalytic subunit PRKX (Homo sapiens) (UniProt P51817); settings: Compound concentration 1000.0 nM
[21] = target: Serine/threonine-protein kinase VRK2 (Homo sapiens) (UniProt Q86Y07); settings: Compound concentration 1000.0 nM
[22] = target: Calcium-dependent protein kinase 1 (Plasmodium falciparum) (UniProt P62344); settings: Compound concentration 1000.0 nM
[23] = target: Beta-3 adrenergic receptor (Homo sapiens) (UniProt P13945); settings: Compound concentration 10.0 uM
[24] = target: Ephrin type-B receptor 6 (Homo sapiens) (UniProt O15197); settings: Compound concentration 1000.0 nM
[25] = target: Ankyrin repeat and protein kinase domain-containing protein 1 (Homo sapiens) (UniProt Q8NFD2); settings: Compound concentration 1000.0 nM
[26] = target: Serine/threonine-protein kinase Sgk1 (Homo sapiens) (UniProt O00141); settings: Compound concentration 1000.0 nM
[27] = target: Ribosomal protein S6 kinase alpha-4 (Homo sapiens) (UniProt O75676); settings: Compound concentration 1000.0 nM
[28] = target: Ribosomal protein S6 kinase alpha-1 (Homo sapiens) (UniProt Q15418); settings: Compound concentration 1000.0 nM
[29] = target: STE20/SPS1-related proline-alanine-rich protein kinase (Homo sapiens) (UniProt Q9UEW8); settings: Compound concentration 1000.0 nM
[30] = tested on: Tyrosine-protein kinase ABL1 (Homo sapiens), P00519 [Y253F]; settings: Compound concentration 1000.0 nM
[31] = tested on: Tyrosine-protein kinase ABL1 (Homo sapiens), P00519 [F317L]; settings: Compound concentration 1000.0 nM
[32] = target: Mitogen-activated protein kinase kinase kinase 13 (Homo sapiens) (UniProt O43283); settings: Compound concentration 1000.0 nM
[33] = tested on: Serine/threonine-protein kinase B-raf (Homo sapiens), P15056 [V600E]; settings: Compound concentration 1000.0 nM
[34] = tested on: Mast/stem cell growth factor receptor Kit (Homo sapiens), P10721 [D816V]; settings: Compound concentration 1000.0 nM
[35] = tested on: Phosphatidylinositol 4,5-bisphosphate 3-kinase catalytic subunit alpha isoform (Homo sapiens), P42336 [C420R]; settings: Compound concentration 1000.0 nM
[36] = target: LIM domain kinase 2 (Homo sapiens) (UniProt P53671); settings: Compound concentration 1000.0 nM
[37] = target: Ribosomal protein S6 kinase alpha-4 (Homo sapiens) (UniProt O75676); settings: Compound concentration 1000.0 nM; remark: listed apart in the source
[38] = target: Serine/threonine-protein kinase 33 (Homo sapiens) (UniProt Q9BYT3); settings: Compound concentration 1000.0 nM
[39] = target: RAF proto-oncogene serine/threonine-protein kinase (Homo sapiens) (UniProt P04049); settings: Compound concentration 1000.0 nM
[40] = target: Serine/threonine-protein kinase 10 (Homo sapiens) (UniProt O94804); settings: Compound concentration 1000.0 nM
[41] = tested on: Phosphatidylinositol 4,5-bisphosphate 3-kinase catalytic subunit alpha isoform (Homo sapiens), P42336 [H1047Y]; settings: Compound concentration 1000.0 nM
[42] = target: Casein kinase I isoform gamma-2 (Homo sapiens) (UniProt P78368); settings: Compound concentration 1000.0 nM
[43] = target: Cyclin-dependent kinase 18 (Homo sapiens) (UniProt Q07002); settings: Compound concentration 1000.0 nM
[44] = target: Bone morphogenetic protein receptor type-1A (Homo sapiens) (UniProt P36894); settings: Compound concentration 1000.0 nM

Ribosomal protein S6 kinase alpha-4 (Homo sapiens), sequence (O75676 whole entry, looked up): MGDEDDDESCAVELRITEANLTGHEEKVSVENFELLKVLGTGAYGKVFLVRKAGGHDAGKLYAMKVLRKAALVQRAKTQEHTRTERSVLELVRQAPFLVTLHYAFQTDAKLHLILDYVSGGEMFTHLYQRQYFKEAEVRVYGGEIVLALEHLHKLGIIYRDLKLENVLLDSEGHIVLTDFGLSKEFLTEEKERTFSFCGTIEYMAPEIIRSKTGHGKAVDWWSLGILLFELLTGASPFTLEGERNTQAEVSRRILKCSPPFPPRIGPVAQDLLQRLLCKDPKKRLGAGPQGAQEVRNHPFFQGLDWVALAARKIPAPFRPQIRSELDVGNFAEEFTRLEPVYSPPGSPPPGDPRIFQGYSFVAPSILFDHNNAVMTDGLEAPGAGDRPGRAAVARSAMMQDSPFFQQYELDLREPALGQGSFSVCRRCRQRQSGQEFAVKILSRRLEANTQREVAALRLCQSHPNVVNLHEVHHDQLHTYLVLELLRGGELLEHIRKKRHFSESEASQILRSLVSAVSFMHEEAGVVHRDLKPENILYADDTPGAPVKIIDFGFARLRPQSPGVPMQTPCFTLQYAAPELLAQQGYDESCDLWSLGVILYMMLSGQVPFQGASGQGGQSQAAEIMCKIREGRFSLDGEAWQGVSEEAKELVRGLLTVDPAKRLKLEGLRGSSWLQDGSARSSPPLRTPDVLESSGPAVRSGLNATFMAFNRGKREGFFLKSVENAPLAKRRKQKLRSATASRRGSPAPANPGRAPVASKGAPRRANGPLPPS
Serine/threonine-protein kinase Sgk1 (Homo sapiens), sequence (O00141 whole entry): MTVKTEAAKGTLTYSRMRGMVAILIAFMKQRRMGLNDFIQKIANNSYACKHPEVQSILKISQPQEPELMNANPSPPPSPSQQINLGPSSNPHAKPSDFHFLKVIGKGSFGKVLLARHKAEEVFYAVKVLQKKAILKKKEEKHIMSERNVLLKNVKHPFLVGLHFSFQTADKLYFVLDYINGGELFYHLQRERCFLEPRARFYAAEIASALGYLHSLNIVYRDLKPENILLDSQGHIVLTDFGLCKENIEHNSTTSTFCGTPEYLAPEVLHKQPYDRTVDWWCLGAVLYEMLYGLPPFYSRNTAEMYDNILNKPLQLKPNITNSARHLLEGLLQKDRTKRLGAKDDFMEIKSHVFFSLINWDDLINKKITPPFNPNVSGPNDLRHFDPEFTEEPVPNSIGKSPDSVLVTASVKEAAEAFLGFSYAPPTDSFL
Phosphatidylinositol 4,5-bisphosphate 3-kinase catalytic subunit alpha isoform (Homo sapiens), P42336 [H1047Y], sequence (P42336 whole entry H1047Y, canonical isoform): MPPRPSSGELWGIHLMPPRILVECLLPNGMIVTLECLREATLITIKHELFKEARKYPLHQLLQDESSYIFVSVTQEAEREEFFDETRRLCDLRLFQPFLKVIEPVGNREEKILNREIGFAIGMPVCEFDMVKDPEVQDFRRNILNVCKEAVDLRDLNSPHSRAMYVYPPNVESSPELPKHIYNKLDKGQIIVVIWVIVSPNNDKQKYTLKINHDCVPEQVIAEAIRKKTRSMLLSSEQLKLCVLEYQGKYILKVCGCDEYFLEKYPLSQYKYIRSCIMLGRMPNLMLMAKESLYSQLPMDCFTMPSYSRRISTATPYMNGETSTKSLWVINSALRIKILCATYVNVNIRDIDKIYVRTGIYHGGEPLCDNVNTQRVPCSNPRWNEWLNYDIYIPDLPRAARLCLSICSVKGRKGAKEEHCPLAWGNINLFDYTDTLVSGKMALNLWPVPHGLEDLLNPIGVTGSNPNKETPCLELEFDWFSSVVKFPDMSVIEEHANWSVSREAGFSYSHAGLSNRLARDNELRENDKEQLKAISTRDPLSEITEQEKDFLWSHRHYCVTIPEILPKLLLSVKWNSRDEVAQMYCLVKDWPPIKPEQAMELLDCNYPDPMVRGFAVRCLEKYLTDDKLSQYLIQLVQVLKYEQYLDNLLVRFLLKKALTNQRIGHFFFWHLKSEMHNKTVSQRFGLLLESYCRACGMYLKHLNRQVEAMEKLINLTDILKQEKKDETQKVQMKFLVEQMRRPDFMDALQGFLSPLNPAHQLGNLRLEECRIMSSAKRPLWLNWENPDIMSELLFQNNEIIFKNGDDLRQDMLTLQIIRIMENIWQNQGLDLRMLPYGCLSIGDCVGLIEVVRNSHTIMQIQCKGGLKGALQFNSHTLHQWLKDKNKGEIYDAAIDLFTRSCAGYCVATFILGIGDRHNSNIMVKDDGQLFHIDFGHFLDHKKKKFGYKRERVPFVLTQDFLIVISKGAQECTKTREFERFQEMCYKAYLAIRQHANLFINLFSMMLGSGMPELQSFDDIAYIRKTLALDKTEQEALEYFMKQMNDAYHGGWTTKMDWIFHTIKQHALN
Serine/threonine-protein kinase ULK3 (Homo sapiens), sequence (Q6PHR2 whole entry): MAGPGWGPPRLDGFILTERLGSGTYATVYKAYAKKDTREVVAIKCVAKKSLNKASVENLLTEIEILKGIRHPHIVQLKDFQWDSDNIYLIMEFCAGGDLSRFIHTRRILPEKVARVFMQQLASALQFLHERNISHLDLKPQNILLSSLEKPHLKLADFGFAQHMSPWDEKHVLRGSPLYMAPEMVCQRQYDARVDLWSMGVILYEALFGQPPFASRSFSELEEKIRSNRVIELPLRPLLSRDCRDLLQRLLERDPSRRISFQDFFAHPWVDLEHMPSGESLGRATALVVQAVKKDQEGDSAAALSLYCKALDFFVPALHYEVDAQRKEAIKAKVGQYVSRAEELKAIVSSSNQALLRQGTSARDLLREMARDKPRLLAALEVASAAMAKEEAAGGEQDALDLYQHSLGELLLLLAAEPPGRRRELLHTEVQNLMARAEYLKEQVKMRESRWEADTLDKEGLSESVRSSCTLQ
cAMP-dependent protein kinase catalytic subunit PRKX (Homo sapiens), sequence (P51817 whole entry): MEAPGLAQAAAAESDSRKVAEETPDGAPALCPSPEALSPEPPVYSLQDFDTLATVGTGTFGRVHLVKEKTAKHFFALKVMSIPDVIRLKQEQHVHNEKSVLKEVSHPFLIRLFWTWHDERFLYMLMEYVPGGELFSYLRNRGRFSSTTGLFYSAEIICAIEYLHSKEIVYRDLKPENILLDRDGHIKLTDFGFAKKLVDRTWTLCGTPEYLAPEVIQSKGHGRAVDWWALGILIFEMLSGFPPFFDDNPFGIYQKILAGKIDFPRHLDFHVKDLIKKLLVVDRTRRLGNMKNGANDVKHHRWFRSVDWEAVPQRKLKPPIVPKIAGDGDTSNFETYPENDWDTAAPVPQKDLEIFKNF
Serine/threonine-protein kinase 38 (Homo sapiens), sequence (Q15208 2-465 limits assumed): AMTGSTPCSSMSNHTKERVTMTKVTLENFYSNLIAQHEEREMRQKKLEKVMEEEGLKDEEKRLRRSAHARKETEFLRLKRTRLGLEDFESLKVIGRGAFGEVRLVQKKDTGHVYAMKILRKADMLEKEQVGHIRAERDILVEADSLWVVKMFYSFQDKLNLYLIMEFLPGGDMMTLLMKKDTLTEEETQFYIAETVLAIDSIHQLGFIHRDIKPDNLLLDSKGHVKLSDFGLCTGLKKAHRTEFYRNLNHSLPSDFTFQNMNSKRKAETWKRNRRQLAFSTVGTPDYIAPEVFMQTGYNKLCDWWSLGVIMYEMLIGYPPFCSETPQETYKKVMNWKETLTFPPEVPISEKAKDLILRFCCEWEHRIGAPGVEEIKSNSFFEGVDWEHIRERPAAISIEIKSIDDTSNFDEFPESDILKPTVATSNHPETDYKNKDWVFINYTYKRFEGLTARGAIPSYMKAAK
Serine/threonine-protein kinase B-raf (Homo sapiens), P15056 [V600E], sequence (P15056 whole entry V600E): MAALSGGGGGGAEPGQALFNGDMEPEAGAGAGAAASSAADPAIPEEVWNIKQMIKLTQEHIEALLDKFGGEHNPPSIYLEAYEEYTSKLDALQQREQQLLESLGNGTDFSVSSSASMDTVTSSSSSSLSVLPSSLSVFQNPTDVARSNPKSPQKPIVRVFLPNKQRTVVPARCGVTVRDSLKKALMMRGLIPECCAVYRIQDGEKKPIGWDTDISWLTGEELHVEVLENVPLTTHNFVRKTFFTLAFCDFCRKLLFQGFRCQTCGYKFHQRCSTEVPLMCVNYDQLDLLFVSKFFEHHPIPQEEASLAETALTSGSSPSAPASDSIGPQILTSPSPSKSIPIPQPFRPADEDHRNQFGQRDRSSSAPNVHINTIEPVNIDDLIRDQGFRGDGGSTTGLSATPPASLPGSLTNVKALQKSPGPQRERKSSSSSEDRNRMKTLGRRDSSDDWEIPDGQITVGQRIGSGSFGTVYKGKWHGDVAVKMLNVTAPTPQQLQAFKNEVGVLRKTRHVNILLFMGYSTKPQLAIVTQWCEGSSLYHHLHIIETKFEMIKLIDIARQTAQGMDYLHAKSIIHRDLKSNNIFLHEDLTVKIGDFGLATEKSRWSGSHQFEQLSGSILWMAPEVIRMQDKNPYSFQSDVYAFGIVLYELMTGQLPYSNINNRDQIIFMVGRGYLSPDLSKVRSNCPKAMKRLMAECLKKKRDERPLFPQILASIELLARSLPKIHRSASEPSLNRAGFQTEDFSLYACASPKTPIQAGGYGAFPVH
Calcium-dependent protein kinase 1 (Plasmodium falciparum), sequence (P62344 2-524 limits assumed): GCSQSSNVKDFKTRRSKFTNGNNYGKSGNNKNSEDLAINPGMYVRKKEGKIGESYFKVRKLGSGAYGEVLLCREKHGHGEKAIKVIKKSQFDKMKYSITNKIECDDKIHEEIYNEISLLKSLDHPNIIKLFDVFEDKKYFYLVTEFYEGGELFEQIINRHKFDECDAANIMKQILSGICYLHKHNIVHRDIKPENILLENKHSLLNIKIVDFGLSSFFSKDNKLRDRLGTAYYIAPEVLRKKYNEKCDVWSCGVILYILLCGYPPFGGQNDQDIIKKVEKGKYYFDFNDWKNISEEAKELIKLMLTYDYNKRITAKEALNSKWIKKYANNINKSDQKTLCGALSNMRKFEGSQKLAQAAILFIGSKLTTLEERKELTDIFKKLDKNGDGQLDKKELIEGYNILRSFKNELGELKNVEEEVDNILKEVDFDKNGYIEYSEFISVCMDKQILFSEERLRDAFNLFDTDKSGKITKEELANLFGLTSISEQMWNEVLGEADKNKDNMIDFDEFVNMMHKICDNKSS

## O=C(NCc1ncc(C(F)(F)F)cc1Cl)c1ccc2c(c1)C1(CCS(=O)(=O)CC1)[C@H](C1CC1)N2S(=O)(=O)c1ccc(F)cc1 [BAY-784]
[1]
  residual activity: 100%
[2]
  residual activity: 92%
[3]
  residual activity: 84%
[4]
  residual activity: 100%
[5]
  residual activity: 100%
[6]
  residual activity: 98%
[7]
  residual activity: 86%
[8]
  residual activity: 76%
[9]
  residual activity: 100%
[10]
  residual activity: 100%
[11]
  residual activity: 70%
[12]
  residual activity: 100%
[13]
  residual activity: 96%
[14]
  residual activity: 85%
[15]
  residual activity: 100%
[16]
  residual activity: 98%
[17]
  residual activity: 100%
[18]
  residual activity: 58%
[19]
  residual activity: 80%
[20]
  residual activity: 88%
[21]
  residual activity: 95%
[22]
  residual activity: 85%
[23]
  inhibition: -2.87%
[24]
  residual activity: 80%
[25]
  residual activity: 89%
[26]
  residual activity: 79%
[27]
  residual activity: 100%
[28]
  residual activity: 99%
[29]
  residual activity: 84%
[30]
  residual activity: 85%
[31]
  residual activity: 74%
[32]
  residual activity: 0%
[33]
  residual activity: 84%
[34]
  residual activity: 100%
[35]
  residual activity: 77%
[36]
  residual activity: 100%
[37]
  residual activity: 91%
[38]
  residual activity: 100%
[39]
  residual activity: 100%
[40]
  residual activity: 54%
[41]
  residual activity: 90%
[42]
  residual activity: 100%
[43]
  residual activity: 100%
[44]
  residual activity: 100%

## O=C(NCc1ncc(C(F)(F)F)cc1Cl)c1ccc2c(c1)C1(CCS(=O)(=O)CC1)[C@@H](C1CC1)N2S(=O)(=O)c1ccc(F)cc1 [BAY-786]
[1]
  residual activity: 100%
[2]
  residual activity: 84%
[3]
  residual activity: 74%
[4]
  residual activity: 97%
[5]
  residual activity: 94%
[6]
  residual activity: 92%
[7]
  residual activity: 71%
[8]
  residual activity: 72%
[9]
  residual activity: 92%
[10]
  residual activity: 100%
[11]
  residual activity: 57%
[12]
  residual activity: 100%
[13]
  residual activity: 78%
[14]
  residual activity: 69%
[15]
  residual activity: 83%
[16]
  residual activity: 73%
[17]
  residual activity: 100%
[18]
  residual activity: 78%
[19]
  residual activity: 79%
[20]
  residual activity: 100%
[21]
  residual activity: 98%
[22]
  residual activity: 100%
[23]
  inhibition: -0.77%
[24]
  residual activity: 94%
[25]
  residual activity: 76%
[26]
  residual activity: 77%
[27]
  residual activity: 96%
[28]
  residual activity: 100%
[29]
  residual activity: 77%
[30]
  residual activity: 100%
[31]
  residual activity: 68%
[32]
  residual activity: 0%
[33]
  residual activity: 90%
[34]
  residual activity: 89%
[35]
  residual activity: 77%
[36]
  residual activity: 94%
[37]
  residual activity: 84%
[38]
  residual activity: 86%
[39]
  residual activity: 100%
[40]
  residual activity: 94%
[41]
  residual activity: 85%
[42]
  residual activity: 85%
[43]
  residual activity: 100%
[44]
  residual activity: 100%
